Where “and” joins values, the source holds several entries; their conditions need not be identical. Identical values can stand only once.
Legend:
Assay in all cases: normalised viability (% of control), CellTiter-Blue; higher = more viable cells (about 100 = DMSO control)
Conditions in all cases: incubation time: 72 h
CAL-85-1 [1] = tested on: CAL-85-1
Protocol: (§1)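 DSRT, CellTiter-Blue viability, 72 h incubation. Signal is normalised to DMSO and benzethonium chloride controls. Value is the normalised response at dose 9.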

MDA-MB-453 [2] = tested on: MDA-MB-453
Protocol: as §1

CAL-148 [3] = tested on: CAL-148
Protocol: as §1

CAL-51 [4] = tested on: CAL-51
Protocol: as §1

DU-4475 [5] = tested on: DU-4475
Protocol: as §1

HDQ-P1 [6] = tested on: HDQ-P1
Protocol: as §1

CAL-85-1 [7] = tested on: CAL-85-1; remark: listed apart in the source
Outline: (§2)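 Compound dissolved in 5 µl medium was pre-loaded into 384-well plates, and breast cancer cell lines in 20 µl suspension were seeded on top and incubated 72 h. After adding 2.5 µl CellTiter-Blue reagent for 2 h at 37 °C, fluorescence was read at 560/590 nm. Plates were normalised to vehicle (100) and a positive kill control (0), with Z'-factor quality control. Each value is normalised viability at a single listed concentration from the series.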

MDA-MB-453 [8] = tested on: MDA-MB-453; remark: listed apart in the source
Outline: as §2

CAL-148 [9] = tested on: CAL-148; remark: listed apart in the source
Outline: as §2

HCC1143 = tested on: HCC1143
Outline: as §2

MDA-MB-231 = tested on: MDA-MB-231
Outline: as §2

CAL-120 = tested on: CAL-120
Outline: as §2

CAL-51 [10] = tested on: CAL-51; remark: listed apart in the source
Outline: as §2

Hs578T = tested on: Hs578T
Outline: as §2

DU-4475 [11] = tested on: DU-4475; remark: listed apart in the source
Outline: as §2

HDQ-P1 [12] = tested on: HDQ-P1; remark: listed apart in the source
Outline: as §2

BT-549 = tested on: BT-549
Outline: as §2

BT-474 = tested on: BT-474
Outline: as §2

MDA-MB-468 = tested on: MDA-MB-468
Outline: as §2

HCC1937 = tested on: HCC1937
Outline: as §2

MFM-223 = tested on: MFM-223
Outline: as §2

SK-BR-3 = tested on: SK-BR-3
Outline: as §2

Compound: CC(=O)O[C@@]12CO[C@@H]1C[C@H](O)[C@@]1(C)C(=O)[C@H](O)C3=C(C)[C@@H](OC(=O)[C@H](O)[C@@H](NC(=O)OC(C)(C)C)c4ccccc4)C[C@@](O)([C@@H](OC(=O)c4ccccc4)[C@H]21)C3(C)C [Docetaxel] (1000 nM)
- normalised viability (CAL-85-1 [1]): 32.1% and 32.3%
- normalised viability (MDA-MB-453 [2]): 23.1% and 24.4%
- normalised viability (CAL-148 [3]): 23.1% and 21.2%
- normalised viability (CAL-51 [4]): 16.2% and 12.2%
- normalised viability (DU-4475 [5]): 11.7% and 10.5%
- normalised viability (HDQ-P1 [6]): 51.3% and 42.4%

Compound: CC1=C2C[C@H]3[C@@H](CC=C4C[C@@H](O)CC[C@@]43C)[C@@H]2CC[C@]12O[C@@H]1C[C@H](C)CN[C@H]1[C@H]2C [Cyclopamine]
- normalised viability (CAL-85-1 [7]; 3 nM): 104%
- normalised viability (CAL-85-1 [7]; 30 nM): 91.9%
- normalised viability (CAL-85-1 [7]; 100 nM): 99.9%
- normalised viability (MDA-MB-453 [8]; 3 nM): 123%
- normalised viability (MDA-MB-453 [8]; 30 nM): 101%
- normalised viability (MDA-MB-453 [8]; 100 nM): 120%
- normalised viability (CAL-148 [9]; 3 nM): 104%
- normalised viability (CAL-148 [9]; 30 nM): 117%
- normalised viability (CAL-148 [9]; 100 nM): 110%
- normalised viability (HCC1143; 10 nM): 96%
- normalised viability (HCC1143; 1000 nM): 107%
- normalised viability (HCC1143; 10000 nM): 99.1%
- normalised viability (MDA-MB-231; 10 nM): 107%
- normalised viability (MDA-MB-231; 1000 nM): 97.2%
- normalised viability (MDA-MB-231; 10000 nM): 104%
- normalised viability (CAL-120; 10 nM): 98.1%
- normalised viability (CAL-120; 1000 nM): 98.4%
- normalised viability (CAL-120; 10000 nM): 97.3%
- normalised viability (CAL-51 [10]; 3 nM): 114%
- normalised viability (CAL-51 [10]; 30 nM): 104%
- normalised viability (CAL-51 [10]; 100 nM): 111%
- normalised viability (Hs578T; 10 nM): 127%
- normalised viability (Hs578T; 1000 nM): 102%
- normalised viability (Hs578T; 10000 nM): 105%
- normalised viability (DU-4475 [11]; 3 nM): 102%
- normalised viability (DU-4475 [11]; 30 nM): 103%
- normalised viability (DU-4475 [11]; 100 nM): 107%
- normalised viability (HDQ-P1 [12]; 3 nM): 89.1%
- normalised viability (HDQ-P1 [12]; 30 nM): 106%
- normalised viability (HDQ-P1 [12]; 100 nM): 114%
- normalised viability (BT-549; 10 nM): 88.6%
- normalised viability (BT-549; 1000 nM): 87.2%
- normalised viability (BT-549; 10000 nM): 92%
- normalised viability (BT-474; 10 nM): 135%
- normalised viability (BT-474; 1000 nM): 114%
- normalised viability (BT-474; 10000 nM): 132%
- normalised viability (MDA-MB-468; 10 nM): 100%
- normalised viability (MDA-MB-468; 1000 nM): 102%
- normalised viability (MDA-MB-468; 10000 nM): 90.9%
- normalised viability (HCC1937; 10 nM): 100%
- normalised viability (HCC1937; 1000 nM): 74%
- normalised viability (HCC1937; 10000 nM): 105%
- normalised viability (MFM-223; 10 nM): 96%
- normalised viability (MFM-223; 1000 nM): 90.2%
- normalised viability (MFM-223; 10000 nM): 103%
- normalised viability (SK-BR-3; 10 nM): 103%
- normalised viability (SK-BR-3; 1000 nM): 123%
- normalised viability (SK-BR-3; 10000 nM): 103%

Compound: O=NN(CCCl)C(=O)NCCCl [Carmustine]
- normalised viability (CAL-85-1 [7]; 3 nM): 95.1%
- normalised viability (CAL-85-1 [7]; 30 nM): 88.9%
- normalised viability (CAL-85-1 [7]; 100 nM): 96.6%
- normalised viability (MDA-MB-453 [8]; 3 nM): 109%
- normalised viability (MDA-MB-453 [8]; 30 nM): 105%
- normalised viability (MDA-MB-453 [8]; 100 nM): 110%
- normalised viability (CAL-148 [9]; 3 nM): 94.5%
- normalised viability (CAL-148 [9]; 30 nM): 96.7%
- normalised viability (CAL-148 [9]; 100 nM): 97.5%
- normalised viability (HCC1143; 10 nM): 87.2%
- normalised viability (HCC1143; 1000 nM): 85.4%
- normalised viability (HCC1143; 10000 nM): 86.6%
- normalised viability (MDA-MB-231; 10 nM): 103%
- normalised viability (MDA-MB-231; 1000 nM): 99.1%
- normalised viability (MDA-MB-231; 10000 nM): 117%
- normalised viability (CAL-120; 10 nM): 98.9%
- normalised viability (CAL-120; 1000 nM): 83%
- normalised viability (CAL-120; 10000 nM): 82.5%
- normalised viability (CAL-51 [10]; 3 nM): 108%
- normalised viability (CAL-51 [10]; 30 nM): 107%
- normalised viability (CAL-51 [10]; 100 nM): 99.4%
- normalised viability (Hs578T; 10 nM): 114%
- normalised viability (Hs578T; 1000 nM): 95.3%
- normalised viability (Hs578T; 10000 nM): 115%
- normalised viability (DU-4475 [11]; 3 nM): 85.3%
- normalised viability (DU-4475 [11]; 30 nM): 83.5%
- normalised viability (DU-4475 [11]; 100 nM): 93%
- normalised viability (HDQ-P1 [12]; 3 nM): 120%
- normalised viability (HDQ-P1 [12]; 30 nM): 128%
- normalised viability (HDQ-P1 [12]; 100 nM): 108%
- normalised viability (BT-549; 10 nM): 88.2%
- normalised viability (BT-549; 1000 nM): 89.9%
- normalised viability (BT-549; 10000 nM): 103%
- normalised viability (BT-474; 10 nM): 124%
- normalised viability (BT-474; 1000 nM): 98.8%
- normalised viability (BT-474; 10000 nM): 125%
- normalised viability (MDA-MB-468; 10 nM): 107%
- normalised viability (MDA-MB-468; 1000 nM): 102%
- normalised viability (MDA-MB-468; 10000 nM): 103%
- normalised viability (HCC1937; 10 nM): 95%
- normalised viability (HCC1937; 1000 nM): 93%
- normalised viability (HCC1937; 10000 nM): 71.5%
- normalised viability (MFM-223; 10 nM): 93.1%
- normalised viability (MFM-223; 1000 nM): 94.6%
- normalised viability (MFM-223; 10000 nM): 103%
- normalised viability (SK-BR-3; 10 nM): 100%
- normalised viability (SK-BR-3; 1000 nM): 123%
- normalised viability (SK-BR-3; 10000 nM): 96.9%

From the supplement of paper PMC4862054
